The subject of test [1] is IL-17-induced GROα secretion from HT-29 cells. Nature of the test: GROα release assay in human colorectal adenocarcinoma epithelial cell (HT-29, ELISA). In kind it is cell-based. As to conditions: 10 ng/mL IL-17A, highest concentration 10 μM, read-out: Cellular assay HT29 cell/CXCL1 IC50. The method, then:
The purpose of the assay is to test the ability of a compound to neutralize IL17A proteins. IL17 can stimulate human epithelial cells to secrete GROα. The ability of one compound of the invention to neutralize IL-17-induced GROα secretion from the human colorectal adenocarcinoma epithelia cell line HT-29 is tested in this assay.
HT-29 cells (human colorectal adenocarcinoma epithelia cell, ATCC) were stimulated with IL-17A (Novoprotein, #C774) in final concentration of 10 ng/mL. The resultant GROα response was measured using an ELISA kit from Invitrogen (#88-52122). HT-29 cells were cultured in complete medium (McCoy's 5A medium+10% FBS) and maintained in a tissue culture flask using standard techniques. On day 1, detached the cell by using TrypLE (Gibco, #12605036) and used the complete medium to neutralize. The cells were centrifuged at 11,00 rmp for 4 minutes. Re-suspended the cell pellet in complete medium and seeded 50,000 HT-29 cells into the 96-well assay plate (Corning, 3599) at 135 μL complete medium per well. The cells were incubated for overnight, at 37° C./5% CO2 to adherent the plate. On day 2, prepared a 4-fold serial dilution of the tested compound in DMSO. The highest concentration of the compound was 10 μM. Transferred 2 μL of the serial diluted compound from the serial dilution plate into the reagent plate which was contained 198 μL complete medium with 100 ng/mL IL-17A per well. The compounds were incubated with the IL-17A for 15 minutes. 15 μL mixtures from reagent plate were transferred into the cell assay plate. Incubated the plate at 37° C./5% CO2 for 48 hours. After the incubation, on day 4, GROα level were measured with GROα ELISA as the manufacturer's instructions. 50 μL supernatant was collected form the assay plate to ELISA plate. ELISA plate was read at 450 nm on a microplate reader and compared to a standard calibration curve.
Data were processed using GraphPad Prism. GROα concentration was calculated from the standard curve. IC50 was determined using the equation log concentration (inhibitor) against response and fitted to four parameters.
(In an ELISA, binding on a coated surface is turned into a signal by an enzyme label.)

For test [2], the target named is human IL-17A / human IL-17RA (Homo sapiens (Human), UniProt Q16552). As to the kind of experiment: Human IL-17A biochemical assay (HTRF, blocking of IL-17A binding to IL-17RA). As to conditions: 0.4 nM IL-17A, 0.3 nM IL-17RA, max compound concentration 10 uM. As to the method:
Compounds disclosed herein were tested for blocking of human IL-17A (Cat: C774, novoprotein) protein with its receptor human IL-17RA (Cat: C153, novoprotein) in an assay based on Homogeneous Time Resolved Fluorescence. 0.4 nM recombinant human IL-17A protein was pre-incubated with a serial dilution of compounds disclosed herein (maximum concentration is 10 uM, 2.7-fold serially diluted, 10 points) at room temperature for 3 hours in an assay buffer containing 20 mM HEPES, pH 7.5, 50 mM NaCl, 0.1% BSA, 0.2 mM DTT, 0.005% Tween 20. Then 0.3 nM recombinant human IL-17RA was added to plate and further incubated at room temperature for 1 hour. After that Mab Anti-6His Tb cryptate Gold (Cat: 61HI2TLB, Cisbio Bioassays) and MAb Anti Human IgG-XL665 (Cat: 61HFCXLB, Cisbio Bioassays) were added to plate and further incubated at room temperature for 1 hour. The HTRF signals (ex337 nm, em620 nm/665 nm) were read on BMG PHERAstar FSX instrument. The inhibition percentage of human IL-17A interaction with its receptor human IL-17RA in presence of increasing concentrations of compounds was calculated based on the ratio of […]. The IC50 for each compound was derived from fitting the data to the four-parameter logistic equation by Dotmatics.
Background: Time-resolved FRET reads energy transfer from a long-lived donor to a nearby acceptor.

Where two headings read alike, the source gives them in different places.

Chain of human IL-17A / human IL-17RA (Q16552 24-155): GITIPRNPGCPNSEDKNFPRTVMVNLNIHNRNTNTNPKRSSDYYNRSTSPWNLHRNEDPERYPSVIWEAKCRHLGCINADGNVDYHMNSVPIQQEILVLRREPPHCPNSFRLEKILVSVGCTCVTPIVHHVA

`CNC(=O)C1(N2C[C@@H](C3CC3)NC2=O)Cc2ccc(NC(=O)[C@@H](NC(=O)c3ccnn3C)C3CCCCC3)cc2C1` (stereo partly drawn) [Example 41, N-((1S)-1-cyclohexyl-2-((2-((R)-4-cyclopropyl-2-oxoimidazolidin-1-yl)-2-(methylcarbamoyl)-2,3-dihydro-1H-inden-5-yl)amino)-2-oxoethyl)-1-methyl-1H-pyrazole-5-carboxamide]: the IC50 in test [1] (Homo sapiens, HT-29, 48 h) stood at 495 nM; in test [2] it was 100 nM.

Take `Cc1nonc1C(=O)N[C@H](C(=O)Nc1ccc2c(c1)CC(C(=O)Nc1ccccc1C#N)(N1C[C@@H](C(C)C)NC1=O)C2)C(C1CC1)C1CC1` (stereo partly drawn) [Example 283, N-((2S)-1-((2-((2-cyanophenyl)carbamoyl)-2-((R)-4-isopropyl-2-oxoimidazolidin-1-yl)-2,3-dihydro-1H-inden-5-yl)amino)-3,3-dicyclopropyl-1-oxopropan-2-yl)-4-methyl-1,2,5-oxadiazole-3-carboxamide]: the IC50 in test [1] (Homo sapiens, HT-29, 48 h) was determined as 34.6 nM; in test [2] it was 32.5 nM.

For the compound `CC#CCC1CN(C2(C(=O)NC)Cc3ccc(NC(=O)[C@@H](NC(=O)c4ccnn4C)C4CCCCC4)cc3C2)C(=O)N1` (stereo partly drawn) [Example 106, N-((1S)-2-((2-(4-(but-2-yn-1-yl)-2-oxoimidazolidin-1-yl)-2-(methylcarbamoyl)-2,3-dihydro-1H-inden-5-yl)amino)-1-cyclohexyl-2-oxoethyl)-1-methyl-1H-pyrazole-5-carboxamide], the IC50 came to 202 nM in test [1] (Homo sapiens, HT-29, 48 h) and 48 nM in test [2].

As to `COc1ccccc1NCC1(N2CC3(CC3)CNC2=O)Cc2ccc(NC(=O)[C@@H](NC(=O)c3ccnn3C)C3CCCCC3)cc2C1` (stereo partly drawn) [Example 173, N-((1S)-1-cyclohexyl-2-((2-(((2-methoxyphenyl)amino)methyl)-2-(6-oxo-5,7-diazaspiro[2.5]octan-5-yl)-2,3-dihydro-1H-inden-5-yl)amino)-2-oxoethyl)-1-methyl-1H-pyrazole-5-carboxamide], the IC50 in test [1] (Homo sapiens, HT-29, 48 h) stood at 153 nM.

On to `Cc1nonc1C(=O)N[C@H](C(=O)Nc1ccc2c(c1)CC(N1C[C@@H](C(C)C)NC1=O)(C(C)(O)C(F)(F)F)C2)C(C1CC1)C1CC1` (stereo partly drawn) [Example 250, N-((2S)-1,1-dicyclopropyl-3-((2-((R)-4-isopropyl-2-oxoimidazolidin-1-yl)-2-(1,1,1-trifluoro-2-hydroxypropan-2-yl)-2,3-dihydro-1H-inden-5-yl)amino)-3-oxopropan-2-yl)-4-methyl-1,2,5-oxadiazole-3-carboxamide], for which the IC50 in test [1] (48 hours) was 271 nM; in test [1] (Homo sapiens, HT-29, 48 h), 190 nM.

`CNC(=O)C1(N2C[C@@H](C(C)C)NC2=O)Cc2ccc(NC(=O)C(NC(=O)c3ccnn3C)C3CCC(OC)CC3)cc2C1` (stereo partly drawn) [Example 72, N-(2-((2-((R)-4-isopropyl-2-oxoimidazolidin-1-yl)-2-(methylcarbamoyl)-2,3-dihydro-1H-inden-5-yl)amino)-1-(4-methoxycyclohexyl)-2-oxoethyl)-1-methyl-1H-pyrazole-5-carboxamide] yielded an IC50 in test [2] of 3630 nM.

Compound `CNC(=O)C1(N2CC(C)NC2=O)CCc2cc(NC(=O)[C@@H](NC(=O)c3ccnn3C)C3CCCCC3)ccc21` (stereo partly drawn) [Example 8, N-((1S)-1-cyclohexyl-2-((1-(4-methyl-2-oxoimidazolidin-1-yl)-1-(methylcarbamoyl)-2,3-dihydro-1H-inden-5-yl)amino)-2-oxoethyl)-1-methyl-1H-pyrazole-5-carboxamide] displayed an IC50 in test [2] greater than 10000 nM.

`CNC(=O)C1(N2C[C@@H](C(C)C)NC2=O)Cc2ccc(NC(=O)[C@@H](NC(=O)c3ncnn3C)C3CCCCC3)cc2C1` (stereo partly drawn) [Example 64, N-((1S)-1-cyclohexyl-2-((2-((R)-4-isopropyl-2-oxoimidazolidin-1-yl)-2-(methylcarbamoyl)-2,3-dihydro-1H-inden-5-yl)amino)-2-oxoethyl)-1-methyl-1H-1,2,4-triazole-5-carboxamide] yielded an IC50 in test [2] of 1820 nM.
